Reference: patent publication US7285564B2, “Substituted 4-amino-1-(pyridylmethyl)piperidine and related compounds” (Theravance, Inc., priority 2002, dated 2007)

Tested on: oxotremorine-induced salivation
Assay: In vivo rat salivation assay
Details: rat bladder assay vs rat salivation assay
Experimental: Female Sprague-Dawley rats weighing 200 to 300 g were anesthetized with urethane (1.5 g/kg, s.c., Sigma, St. Louis, Mo.), with a supplement of 0.25 g/kg, s.c. urethane as needed. Urethane was administered at a concentration of 0.25 g/mL.
Rats were placed on a heated blanket on their dorsal side in an inclined position (20° angle) position (head down). A swab was placed in the rat's mouth. The test compound or vehicle was administered intravenously via the tail vein. After 5 min., oxotremorine (1.0 mg/kg) was administered subcutaneously. The swab was discarded and
Replaced by a pre-weighed swab. Saliva was then collected for 10 min. and then the swab was removed and re-weighed to determine the output of saliva. Dose-response curves were fitted with a four parameter logistic equation to obtain estimates of ID50 (dose required to produce 50% of the maximal response).
By comparing the ID50 values determined in the rat bladder assay and rat salivation assay, the in vivo bladder/salivation selectivity ratio was calculated for the compounds tested.

Structure (SMILES) | ID50 bladder/salivation selectivity ratio
CCN(CC)CC#CCOC(=O)C(O)(c1ccccc1)C1CCCCC1 (centres unmarked) [oxybutynin, reference compound] | about 1.4
Cc1ccc(O)c([C@H](CCN(C(C)C)C(C)C)c2ccccc2)c1 [tolterodine, reference compound] | ~4.8
